In brackets after ≈: the same amount, converted by molar mass.
System: Enterococcus faecalis ATCC 29212
Assay: MIC against Enterococcus faecalis ATCC 29212
Type: cell-based
Conditions: ATCC29212; Enterococcus faecalis ATCC 29212; read-out: MICs against Enterococcus faecalis, Activity
Method in brief: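 MIC measured by broth microdilution or agar dilution following CLSI guidelines (M7-A7 for aerobes, M11-A6 for anaerobes).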

Row | Structure (SMILES) | MIC
1 | CCNC(=O)Nc1nc2cc(-c3cccnc3)cc(-c3cccc(N(C)C)n3)c2s1 [Example 168, 1-[7-(6-Dimethylamino-pyridin-2-yl)-5-pyridin-3-yl-benzothiazol-2-yl]-3-ethyl-urea] | 0.25 to 1 µg/mL (≈ 0.597 to 2.39 µM)
2 | CCNC(=O)Nc1nc2cc(-c3ccn(CCN4CCOCC4)c(=O)c3)cc(-c3ccccn3)c2s1 [Example 63, 1-Ethyl-3-{5-[1-(2-morpholin-4-yl-ethyl)-2-oxo-1,2-dihydro-pyridin-4-yl]-7-pyridin-2-yl-benzothiazol-2-yl}-urea] | 0.25 to 1 µg/mL (≈ 0.495 to 1.98 µM)
3 | CCNC(=O)Nc1nc2cc(-c3cccnc3)cc(-c3ccc4cc[nH]c4n3)c2s1 [Example 111, 1-Ethyl-3-[5-pyridin-3-yl-7-(1H-pyrrolo[2,3-b]pyridin-6-yl)-benzothiazol-2-yl]-urea] | < 0.25 µg/mL
4 | CCNC(=O)Nc1nc2cc(-c3cccnc3)cc(-c3cccn3C)c2s1 [Example 11, 1-Ethyl-3-[7-(1-methyl-1H-pyrrol-2-yl)-5-pyridin-3-yl-benzothiazol-2-yl]-urea] | 0.25 to 1 µg/mL (≈ 0.662 to 2.65 µM)
5 | CCNC(=O)Nc1nc2cc(-c3cccnc3)cc(-c3nc(CO)cs3)c2s1 [Example 106, 1-Ethyl-3-[7-(4-hydroxymethyl-thiazol-2-yl)-5-pyridin-3-yl-benzothiazol-2-yl]-urea] | 0.25 to 1 µg/mL (≈ 0.608 to 2.43 µM)
6 | CCNC(=O)Nc1nc2cc(-c3ccc(CC(=O)NC)nc3)cc(-c3ccccn3)c2s1 [Example 70, 2-{5-[2-(3-Ethyl-ureido)-7-pyridin-2-yl-benzothiazol-5-yl]-pyridin-2-yl}-N-methyl-acetamide] | < 0.25 µg/mL
7 | CCNC(=O)Nc1nc2cc(-c3cccnc3)cc(N)c2s1 [Example 149, 1-(7-Amino-5-pyridin-3-yl-benzothiazol-2-yl)-3-ethyl-urea] | 2 to 16 µg/mL (≈ 6.38 to 51.1 µM)
8 | CCNC(=O)Nc1nc2cc(-c3cncnc3)cc(-c3cncnc3)c2s1 [Example 147, 1-(5,7-Di-pyrimidin-5-yl-benzothiazol-2-yl)-3-ethyl-urea] | 2 to 16 µg/mL (≈ 5.3 to 42.4 µM)
9 | CCNC(=O)Nc1nc2cc(-c3ccc(C#N)nc3)cc(-c3ccccn3)c2s1 [Example 33, 1-[5-(6-Cyano-pyridin-3-yl)-7-pyridin-2-yl-benzothiazol-2-yl]-3-ethyl-urea] | < 0.25 µg/mL
10 | CCNC(=O)Nc1nc2cc(-c3cccnc3)cc(-c3ccccc3OC)c2s1 [Example 87, 1-Ethyl-3-[7-(2-methoxy-phenyl)-5-pyridin-3-yl-benzothiazol-2-yl]-urea] | 0.25 to 1 µg/mL (≈ 0.618 to 2.47 µM)
11 | CCNC(=O)Nc1nc2cc(-c3cccnc3)cc(-n3cccn3)c2s1 [Example 140, 1-Ethyl-3-(7-pyrazol-1-yl-5-pyridin-3-yl-benzothiazol-2-yl)-urea] | 0.25 to 1 µg/mL (≈ 0.686 to 2.74 µM)
12 | CCNC(=O)Nc1nc2cc(-c3cnc4[nH]ccc4c3)cc(-c3cccnc3)c2s1 [Example 49, 1-Ethyl-3-[7-pyridin-3-yl-5-(1H-pyrrolo[2,3-b]pyridin-5-yl)-benzothiazol-2-yl]-urea] | 0.25 to 1 µg/mL (≈ 0.603 to 2.41 µM)
13 | CCNC(=O)Nc1nc2cc(-c3cccnc3)cc(-c3cn[nH]c3)c2s1 [Example 80, 1-Ethyl-3-[7-(1H-pyrazol-4-yl)-5-pyridin-3-yl-benzothiazol-2-yl]-urea] | 0.25 to 1 µg/mL (≈ 0.686 to 2.74 µM)
14 | CCNC(=O)Nc1nc2cc(-c3ccc(C)nn3)cc(-c3cccnc3)c2s1 [Example 46, 1-Ethyl-3-[5-(6-methyl-pyridazin-3-yl)-7-pyridin-3-yl-benzothiazol-2-yl]-urea] | 2 to 16 µg/mL (≈ 5.12 to 41 µM)
15 | CCNC(=O)Nc1nc2cc(-c3cccnc3)cc(-c3cnn(CCN4CCOCC4)c3)c2s1 [Example 81, 1-Ethyl-3-{7-[1-(2-morpholin-4-yl-ethyl)-1H-pyrazol-4-yl]-5-pyridin-3-yl-benzothiazol-2-yl}-urea] | 2 to 16 µg/mL (≈ 4.19 to 33.5 µM)
16 | CCNC(=O)Nc1nc2cc(-c3ccc(CN4CCOCC4)cc3)cc(-c3ccc(CN4CCOCC4)cc3)c2s1 [Example 146, 1-[5,7-Bis-(4-morpholin-4-ylmethyl-phenyl)-benzothiazol-2-yl]-3-ethyl-urea] | 2 to 16 µg/mL (≈ 3.5 to 28 µM)
17 | CCNC(=O)Nc1nc2cc(-c3cccnc3)cc(-c3cnccn3)c2s1 [Example 101, 1-Ethyl-3-(7-pyrazin-2-yl-5-pyridin-3-yl-benzothiazol-2-yl)-urea] | < 0.25 µg/mL

Reference: patent publication US8481544B2, “Antibacterial compositions” (Biota Europe Limited, priority 2006, dated 2013)
